US4552874A, “Pyrazolooxazines, pyrazolothiazines, and pryazoloquinolines and their use as medicaments” (Bayer Aktiengesellschaft, priority 1982, dated 1985)

How the values were obtained:
[1] = molecular target: T1, Lipoxygenase in platelet (Homo sapiens, UniProt P18054); assay: Inhibition of lipoxygenase in washed human platelets (HETE synthesis from radioactively labelled arachidonic acid); format: cell-based; conditions: in vitro
T1 construct: the metabolism of radioactively labelled arachidonic acid on washed human platelets is used; endogenous in cells; host or cells: washed human platelets
T1 sequence (P18054 1-663): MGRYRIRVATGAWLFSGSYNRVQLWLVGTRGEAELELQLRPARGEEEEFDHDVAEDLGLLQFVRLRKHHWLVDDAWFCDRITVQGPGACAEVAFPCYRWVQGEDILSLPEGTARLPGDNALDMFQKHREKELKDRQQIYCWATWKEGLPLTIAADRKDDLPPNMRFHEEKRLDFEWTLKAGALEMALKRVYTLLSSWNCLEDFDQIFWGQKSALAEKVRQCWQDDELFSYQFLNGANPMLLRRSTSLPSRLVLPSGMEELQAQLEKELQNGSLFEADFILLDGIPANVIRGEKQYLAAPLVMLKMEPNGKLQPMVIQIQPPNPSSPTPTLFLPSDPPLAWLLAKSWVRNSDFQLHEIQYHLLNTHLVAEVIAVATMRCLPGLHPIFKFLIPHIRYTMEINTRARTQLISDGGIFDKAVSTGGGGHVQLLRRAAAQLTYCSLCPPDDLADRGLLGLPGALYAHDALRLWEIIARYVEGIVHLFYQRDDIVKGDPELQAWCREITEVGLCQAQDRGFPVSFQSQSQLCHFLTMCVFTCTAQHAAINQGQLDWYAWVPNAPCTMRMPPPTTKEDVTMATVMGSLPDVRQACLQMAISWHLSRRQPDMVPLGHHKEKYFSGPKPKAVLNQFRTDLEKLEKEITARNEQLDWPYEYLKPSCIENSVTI
Protocol: In this test method, the metabolism of radioactively labelled arachidonic acid on washed human platelets is used. In this in vitro test, the radioactively labelled metabolites are extracted from the reaction mixture and separated by thin-layer chromatography. The autoradiogram is evaluated on a thin-layer scanner. Under these test conditions, the labelled metabolites are separated from the unreacted arachidonic acid and can then be evaluated quantitatively. The distribution of radioactivity over the products of cyclooxygenase formed during the metabolism, thromboxane B2 (TXB2) and 12-hydroxy-5,8,10-heptadecatrienoic acid (HHT) and the product of lipoxygenase, 12-hydroxy-5,8,11,14-eicosatetraenoic acid (HETE), under the influence of the inhibitors provides a measure of the inhibition of the enzymes.
The inhibition of lipoxygenase by the compounds according to the invention can be measured by the inhibition of synthesis of HETE. It emerges that the synthesis of TXB2 and of HHT remains unaffected, whilst the conversion of arachidonic acid decreases. […] (Compare Table 1).

[2] = system: Lipoxygenase in PMN Leucocytes; assay: Inhibition of lipoxygenase in PMN leucocytes (liberation of 5-HETE and leukotriene B4); format: cell-based, humans and rabbits; conditions: in vitro
Protocol: The polymorphonuclear leucocytes of humans and of rabbits metabolise arachidonic acid to 5-hydroxy-5,8,11,14-eicosatetraenoic acid (5-HETE) and leukotriene B4 (5S, 12R-dihydroxy-6 cis, 8,10-trans-14 cis-eicosatetraenoic acid). The inhibition of the liberation of 5-HETE and leukotriene B4 from the leucocytes provides a measure of the lipoxygenase-inhibitory effect of the compounds according to the invention. (Compare Table 1).
The test with human leucocytes is carried out by the method of Borgeat and Samuelsson (j. Biol. Chem. 254; 2643, 1979 and Proc. Natl. Acad. Sci. USA, 76, 2148 (1979), and with rabbit leucocytes by the method of Walker and Parish (Inter. Archs. Allergy appl. Immun. 66, 83, 1981).

[3] = system: cyclooxygenase; conditions: cited from earlier work
[4] = systemic administration (for example orally); cited from earlier work
[5] = system: prostacyclin synthesis in strips of rabbit aorta; assay: Stimulation of prostacyclin synthesis in strips of rabbit aorta; format: cell-based; conditions: Oryctolagus cuniculus, 1 h, read-out: Stimulation in % compared to control (prostacyclin synthesis); for activation at 2 µg/mL: 2.10^6 g/ml of substance
[6] = system: melanoma B 16; assay: Inhibition of the initiation of pulmonary metastases in melanoma B 16; format: in vivo; conditions: melanoma B 16, mouse, three i.p. administrations of 1 mg/kg
Text: The compounds according to the invention are also active in vivo. […] The compounds according to the invention also reduce the formation of oedema in the model of carrageenan inflammation, (compare Table 3) and inhibit the formation of metastases from B-16 melanoma (method of Honn, et. al. Science 212, 1270, 1981).

Row | Structure (SMILES) | Minimum concentration (g/ml) for inhibition of Lipoxygenase in platelet [1] | Minimum concentration (g/ml) for inhibition of Lipoxygenase in PMN Leucocytes [2] | also measured
1 | Cn1ncc2c1Nc1cc(Cl)ccc1O2 | 10^-6 g/ml | 10^-6 g/ml | 
2 | Cc1ccc2c(c1)Nc1[nH]ncc1S2 | 10^-6 g/ml | 10^-6 g/ml | 
3 | NC1=NN(c2cccc(C(F)(F)F)c2)CC1 [3-amino-1-(m-trifluoromethylphenyl)-2-pyrazoline] |  |  | action of known lipoxygenase inhibitors, in words [3]: either also act as inhibitors of cyclooxygenase or only act at very high concentrations; toxic side effects, in words [4]: toxic side effects on systemic administration (for example orally)
4 | CCCCCC#CCC#CCC#CCC#CCCCC(=O)O [5,8,11,14-eicosatetraynoic acid] |  |  | action of known lipoxygenase inhibitors, in words [3]: either also act as inhibitors of cyclooxygenase or only act at very high concentrations
5 | c1ccc2c(c1)Nc1[nH]ncc1S2 [Compound 12] |  |  | activation at 2 µg/mL [5]: 80%
6 | c1cnc2c(c1)Oc1cn[nH]c1N2 [Compound 17] |  |  | activation at 2 µg/mL [5]: 200%
7 | c1ccc2cc3c(cc2c1)Nc1[nH]ncc1O3 [Compound 18] |  |  | % Inhibition of the initiation of pulmonary metastases [6]: 36%
8 | Cn1ncc2c1Nc1cc3ccccc3cc1O2 [Compound 19] |  |  | % Inhibition of the initiation of pulmonary metastases [6]: 30%
9 | CN1c2ccccc2Oc2cnn(C)c21 [Compound 24] |  |  | activation at 10 µg/mL ([5]; at 10^-5 g/ml substance concentration): 100%
10 | Clc1ccc2c(c1)Nc1[nH]ncc1O2 [drawing 13] | 10^-6 g/ml | 10^-6 g/ml | 
11 | Cc1ccc2c(c1)Nc1[nH]ncc1O2 [drawing 14] | 10^-6 g/ml | 10^-6 g/ml | 
12 | c1ccc2cc3c(cc2c1)Nc1[nH]ncc1O3 [drawing 29] | 10^-6 g/ml | 10^-6 g/ml | 
13 | CC(Cc1ccc(O)c(O)c1)C(C)Cc1ccc(O)c(O)c1 (centres unmarked) [nordihydroguaiaretic acid] |  |  | action of known lipoxygenase inhibitors, in words [3]: either also act as inhibitors of cyclooxygenase or only act at very high concentrations
14 | O=C1CCN(c2ccccc2)N1 [phenidone] |  |  | action of known lipoxygenase inhibitors, in words [3]: either also act as inhibitors of cyclooxygenase or only act at very high concentrations
